Data reported in PubChem BioAssay AID248 (DTP/NCI, 2004).
“And” between values parts separate entries of the source, which are not always exact repeats. Equal entries are not always repeated. Toxic doses and inconclusive results are not listed.

Tested on: L1210 leukemia ip in BDF1 mice, survival T/C
Assay: NCI In Vivo Anticancer Drug Screen. Data for tumor model L1210 Leukemia (intraperitoneal) in B6D2F1 (BDF1) mice
Conditions: endpoint: mean survival time, higher = longer survival
In short: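 Transplantable tumor model; survival measured in treated vs vehicle control mice. Value = treated/control.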

[1] = dose: 50.0 mg/kg/injection, schedule: Q01DX009 (ip), vehicle: saline
[2] = dose: 100.0 mg/kg/injection, schedule: Q01DX001 (ip), vehicle: saline
[3] = dose: 100.0 mg/kg/injection, schedule: Q04DX003 (ip), vehicle: Klucel (hydroxypropylcellulose) (HPC)
[4] = dose: 200.0 mg/kg/injection, schedule: Q04DX003 (ip), vehicle: Klucel (hydroxypropylcellulose) (HPC)
[5] = dose: 400.0 mg/kg/injection, schedule: Q04DX003 (ip), vehicle: Klucel (hydroxypropylcellulose) (HPC)
[6] = dose: 150.0 mg/kg/injection, schedule: Q01DX009 (ip), vehicle: saline with Tween-80
[7] = dose: 100.0 mg/kg/injection, schedule: Q01DX009 (ip), vehicle: other
[8] = dose: 100.0 mg/kg/injection, schedule: Q04DX003 (ip), vehicle: saline with Tween-80
[9] = dose: 200.0 mg/kg/injection, schedule: Q04DX003 (ip), vehicle: saline with Tween-80
[10] = dose: 400.0 mg/kg/injection, schedule: Q04DX003 (ip), vehicle: saline with Tween-80
[11] = dose: 100.0 mg/kg/injection, schedule: Q04DX002 (ip), vehicle: saline
[12] = dose: 200.0 mg/kg/injection, schedule: Q04DX002 (ip), vehicle: saline
[13] = dose: 100.0 mg/kg/injection, schedule: Q01DX009 (ip), vehicle: saline with Tween-80
[14] = dose: 200.0 mg/kg/injection, schedule: Q01DX009 (ip), vehicle: saline with Tween-80
[15] = dose: 400.0 mg/kg/injection, schedule: Q01DX009 (ip), vehicle: saline with Tween-80
[16] = dose: 50.0 mg/kg/injection, schedule: Q01DX009 (ip), vehicle: saline with Tween-80

COc1ccc([N+](=O)[O-])cc1C(=O)O
T/C (dose: 75.0 mg/kg/injection, schedule: Q01DX001 (ip), vehicle: saline): 104 % of control
T/C (dose: 75.0 mg/kg/injection, schedule: Q04DX003 (ip), vehicle: acetone): 100 % of control
T/C (dose: 150.0 mg/kg/injection, schedule: Q01DX001 (ip), vehicle: saline): 95 % of control
T/C (dose: 150.0 mg/kg/injection, schedule: Q04DX003 (ip), vehicle: acetone): 89 % of control
T/C (dose: 300.0 mg/kg/injection, schedule: Q01DX001 (ip), vehicle: saline): 104 % of control
T/C (dose: 300.0 mg/kg/injection, schedule: Q04DX003 (ip), vehicle: acetone): 93 % of control

CCN(CC)CCCOC(=O)c1ccc(NC(C)(C)[N+](=O)[O-])cc1
T/C (dose: 25.0 mg/kg/injection, schedule: Q01DX009 (ip), vehicle: saline): 98 % of control
T/C [1]: 91 % of control
T/C [2]: 90 % of control

CC(=O)N1C=Cc2ccccc2C1C1c2ccccc2C=CN1C(C)=O (stereo unspecified)
T/C [3]: 98 % of control
T/C [4]: 96 % of control
T/C [5]: 93 % of control

CC(C(O)c1ccc(Cl)cc1)C(O)(C(F)(F)F)C(F)(F)F (stereo unspecified)
T/C (dose: 75.0 mg/kg/injection, schedule: Q01DX009 (ip), vehicle: saline with Tween-80): 100 % of control
T/C [6]: 110 % of control
T/C (dose: 300.0 mg/kg/injection, schedule: Q01DX009 (ip), vehicle: saline with Tween-80): 101 % of control

O=C(N=C=S)c1ccccc1
T/C [7]: 95 % of control
T/C (dose: 200.0 mg/kg/injection, schedule: Q01DX009 (ip), vehicle: other): 87 % of control
T/C (dose: 400.0 mg/kg/injection, schedule: Q01DX009 (ip), vehicle: other): 89 % of control

COC(=O)C1C=CCC=C1OC (stereo unspecified)
T/C [8]: 96 % of control
T/C [9]: 105 % of control
T/C [10]: 91 % of control

CCOC(=O)C1(C(C)C)OC2(O)CCCCCN2C1=O (stereo unspecified)
T/C [1]: 95 % of control
T/C (dose: 100.0 mg/kg/injection, schedule: Q01DX009 (ip), vehicle: saline): 100 % of control
T/C [11]: 89 % of control
T/C (dose: 200.0 mg/kg/injection, schedule: Q01DX009 (ip), vehicle: saline): 95 % of control
T/C [12]: 92 % of control

O=[N+]([O-])c1cc[n+]([O-])c(Br)c1
T/C [13]: 98 % of control
T/C [8]: 108 % of control
T/C [14]: 103 % of control
T/C [9]: 101 % of control
T/C [15]: 97 % of control
T/C [10]: 93 % of control

CN(C)c1ccc(NC(=O)Nc2cccc(Cl)c2)cc1
T/C [13]: 91 % of control
T/C [8]: 94 % of control
T/C [14]: 94 % of control
T/C [9]: 100 % of control
T/C [15]: 92 % of control
T/C [10]: 92 % of control

CNC(=O)Oc1cccc(N(C)C)c1
T/C (dose: 9.5 mg/kg/injection, schedule: Q01DX001 (ip), vehicle: other): 100 % of control
T/C (dose: 19.0 mg/kg/injection, schedule: Q01DX001 (ip), vehicle: other): 98 % of control

CCOC(=O)CCC(NC(=O)c1ccc2c(c1)CCCN2C=O)C(=O)OCC (stereo unspecified)
T/C [3]: 104 % of control
T/C [4]: 103 % of control
T/C [5]: 103 % of control

Cc1ccc([N+](=O)[O-])cc1NC(=O)Sc1ccc(C(C)(C)C)cc1C
T/C [11]: 101 % of control
T/C [12]: 88 % of control
T/C (dose: 400.0 mg/kg/injection, schedule: Q04DX002 (ip), vehicle: saline): 101 % of control

C=CCNC(=S)Nc1ccc(N(C)C)cc1
T/C [16]: 94 % of control
T/C [13]: 100 % of control
T/C [8]: 103 % of control
T/C [14]: 103 % of control
T/C [9]: 95 % of control

CC1=NCCc2c1cc1c([nH]c3ccccc31)c2C
T/C (dose: 14.0 mg/kg/injection, schedule: Q01DX Z (ip), vehicle: carboxymethylcellulose (CMC)): 106 % of control
T/C (dose: 28.0 mg/kg/injection, schedule: Q01DX Z (ip), vehicle: carboxymethylcellulose (CMC)): 107 % of control
T/C (dose: 44.0 mg/kg/injection, schedule: Q01DX009 (ip), vehicle: other): 121 % of control
T/C (dose: 44.0 mg/kg/injection, schedule: Q01DX009 (ip), vehicle: saline with Tween-80): 115 % of control
T/C [16]: 101 % of control
T/C (dose: 56.0 mg/kg/injection, schedule: Q01DX Z (ip), vehicle: carboxymethylcellulose (CMC)): 113 % of control
T/C [7]: 151 % of control
T/C [13]: 151 % of control
T/C (dose: 100.0 mg/kg/injection, schedule: Q04DX003 (ip), vehicle: acetone): 110 % of control
T/C [8]: 110 % of control
T/C (dose: 112.0 mg/kg/injection, schedule: Q01DX Z (ip), vehicle: carboxymethylcellulose (CMC)): 123 % of control
T/C [6]: 178 % of control
T/C (dose: 177.0 mg/kg/injection, schedule: Q04DX003 (ip), vehicle: saline with Tween-80): 122 % of control
T/C [14]: 101 % of control
T/C (dose: 200.0 mg/kg/injection, schedule: Q04DX003 (ip), vehicle: acetone): 102 % of control
T/C [9]: 115 % of control
T/C (dose: 210.0 mg/kg/injection, schedule: Q01DX009 (ip), vehicle: other): 98 % of control
T/C (dose: 266.0 mg/kg/injection, schedule: Q04DX003 (ip), vehicle: saline with Tween-80): 124 % of control

O=C1C=Cc2ccccc2/C1=C/c1nc(-c2ccc(Cl)cc2)oc1O
T/C (dose: 100.0 mg/kg/injection, schedule: Q04DX002 (ip), vehicle: Klucel (hydroxypropylcellulose) (HPC)): 95 % of control
T/C (dose: 200.0 mg/kg/injection, schedule: Q04DX002 (ip), vehicle: Klucel (hydroxypropylcellulose) (HPC)): 91 % of control

N=c1ccn(CC(O)COc2ccccc2)cc1 (stereo unspecified)
T/C [2]: 102 % of control

CC(C)/C(=N\Nc1ccc([N+](=O)[O-])cc1[N+](=O)[O-])c1ccccc1
T/C [8]: 96 % of control
T/C [9]: 106 % of control
T/C [10]: 100 % of control

O=C(COc1cccc(Cl)c1)Nc1cc[n+](Cc2ccc(S(=O)(=O)F)cc2)cc1
T/C (dose: 25.0 mg/kg/injection, schedule: Q04DX003 (ip), vehicle: saline with Tween-80): 102 % of control
T/C (dose: 50.0 mg/kg/injection, schedule: Q04DX003 (ip), vehicle: saline with Tween-80): 100 % of control
T/C [8]: 97 % of control and 113 % of control

O=C1/C(=C\c2ccc(O)cc2)Oc2cc(O)ccc21
T/C (dose: 100.0 mg/kg/injection, schedule: Q01DX001 (ip), vehicle: saline with Tween-80): 98 % of control
T/C (dose: 200.0 mg/kg/injection, schedule: Q01DX001 (ip), vehicle: saline with Tween-80): 87 % of control
T/C (dose: 400.0 mg/kg/injection, schedule: Q01DX001 (ip), vehicle: saline with Tween-80): 90 % of control

CCCCCCCCOP(OCCCCCCCC)OCCCCCCCC
T/C (dose: 100.0 mg/kg/injection, schedule: Q04DX003 (ip), vehicle: saline): 95 % of control
T/C (dose: 200.0 mg/kg/injection, schedule: Q04DX003 (ip), vehicle: saline): 98 % of control
T/C (dose: 400.0 mg/kg/injection, schedule: Q04DX003 (ip), vehicle: saline): 104 % of control

CN(C)C(=O)NCc1ccccc1
T/C [3]: 90 % of control
T/C [4]: 92 % of control
T/C [5]: 98 % of control

CCOc1ccc(NC(=O)Nc2ccccc2)cc1
T/C [13]: 94 % of control
T/C [8]: 96 % of control
T/C [14]: 93 % of control
T/C [9]: 94 % of control
T/C [15]: 93 % of control
T/C [10]: 94 % of control

O=Nc1ccc(O)c(=O)cc1
T/C (dose: 1.0 mg/kg/injection, schedule: Q01DX009 (ip), vehicle: saline): 90 % of control
T/C (dose: 1.0 mg/kg/injection, schedule: Q04DX003 (ip), vehicle: saline): 100 % of control
T/C (dose: 2.0 mg/kg/injection, schedule: Q01DX009 (ip), vehicle: saline): 90 % of control
T/C (dose: 2.0 mg/kg/injection, schedule: Q04DX003 (ip), vehicle: saline): 97 % of control
T/C (dose: 4.0 mg/kg/injection, schedule: Q01DX009 (ip), vehicle: saline): 97 % of control
T/C (dose: 4.0 mg/kg/injection, schedule: Q04DX003 (ip), vehicle: saline): 109 % of control

CC1(C)OCC(C2OC(C)(C)OC2C(O)c2cn(-c3ccccc3)nn2)O1 (stereo unspecified)
T/C (dose: 100.0 mg/kg/injection, schedule: Q01DX005 (ip), vehicle: saline): 102 % of control
T/C (dose: 200.0 mg/kg/injection, schedule: Q01DX005 (ip), vehicle: saline): 104 % of control
